Results as given in US20260216361A1, “NANOBODY-DRUG CONJUGATES AND METHODS OF PREPARING THEREOF” (Vanderbilt University, priority 2022, published 2026).
Like-named read-outs stand apart in the source and are kept apart here.

How the values were obtained:
[1] = cited from earlier work
[2] = tested on: EMT6 tumors; assay: Orthotopic EMT6 breast tumor model; assay type: in vivo, mouse; details: nanobody carriers I.V. 1.25 μg agonist; ICB 100 μg intraperitoneally; Balb/c
Procedure: Evaluation of Nanobodies in Tumor Models. 6-8-week C57BL/6 mice (The Jackson Laboratory) were inoculated with B16.F10, B16.F10-LUC, or B16.F10-OVA models. For EMT6 models, 6-8 week Balb/C female mice (The Jackson Laboratory) were used. Tumors were generated in B16.F10 and B16.F10-OVA models by subcutaneous injection of 5×10^5 cancer cells, suspended in 100 μL of PBS, at the right flank side of the mouse. B16.F10-LUC inoculations were performed by intravenous (I.V.) injection at a volume of 100 μL and using 1×10^6 cancer cells. EMT6 inoculations were orthotopic and placed at the left-side 4th mammary fat pad at a volume of 100 μL and using […]. When the volume of tumors reached ~75-100 mm^3, mice were treated by I.V. injection of nanobodies or free diABZT compound 3 (using 40% PEG400 as an excipient for free diABZI, Sigma), or intraperitoneal (I.P) injection of commercial anti-PD-L1 IgG (Clone BEO101, Bio X Cell) (100 μL per injection). Tumor volume calculations were calculated using Vtumor=L×W2×0.5, in which Vtumor is tumor volume, L is tumor length, and W is tumor width. Tumor volume, total murine mass, and murine well-being were recorded for the duration of the study. The endpoint for maximum tumor volume (i.e. survival) during studies was 1500 mm^3.

[3] = Pharmacokinetics of Cy5 dye and nanobody-Cy5 conjugates in healthy mice; assay type: in vivo, mouse; details: 2 mg/kg I.V., healthy female C57BL/6 mice
Procedure: Pharmacokinetics and Ex Vivo Imaging Experiments. Healthy (Balb/c or C57BL/6) and EMT6 tumor bearing (Balb/c) mice were injected with 100 μL of Cy5 (either as free dye or as a nanobody conjugate) at a dose of 2 mg/kg intravenously. Blood draws were taken using heparinized capillary tubes (DWK Life Sciences) at discrete time points up to five days after injection. 1 μL of blood was mixed with 50 μL of PBS, centrifuged, and the diluted plasma was collected for analysis. Prescence of Cy5 was determined by fluorescence intensity using a plate reader, with an excitation wavelength of 645 nm and an emission wavelength of 675 nm. Pharmacokinetic analysis was performed in GraphPad Prism (V10) using either a one-phase decay or two-phase decay, in which the reported half-life is the second phase (elimination). Biodistribution studies were performed by excising and weighing hearts, lungs, livers, spleens, kidneys, and tumors. Tissue were washed in 1× PBS and transferred to the stage of the IVIS Lumina Ill (PerkinElmer). Fluorescence (radiant efficiency) was measured with a maximum value of 1.56×10^10, and a minimum of 8.21×10^8, and areas were drawn for organs to generate average radiant efficiency values (per cm^2) using the Living Image software (version 4.5). […] Images were taken on the IVIS and luminescence was quantified as total radiant flux (p/s) for each set of lungs.

serum albumin
half-life ([1]; in mice): 35 to 40 h

CCn1nc(C)cc1C(=O)Nc1nc2cc(C(N)=O)cc(OC)c2n1C/C=C/Cn1c(NC(=O)c2cc(C)nn2CC)nc2cc(C(N)=O)cc(OCCCN3CCOCC3)c21 [diABZI, reference compound]
tumor growth [2]: did not confer a therapeutic benefit
half-life ([1]; in vivo): ~ 90 minutes

CC1(C)C(/C=C/C=C/C=C2/N(CCCCCC(=O)NCCC(=O)N3Cc4ccccc4C#Cc4ccccc43)c3ccc(S(=O)(=O)O)cc3C2(C)C)=[N+](CCCS(=O)(=O)[O-])c2ccc(S(=O)(=O)O)cc21 [DBCO-Cy5, reference compound]
elimination half-life [3]: approximately 5 minutes
